Details: 101.33 kPa, Liquid, Vibrating tube method

CC(=O)N(C)C [N,N-dimethylethanamide]
Details	mass density [kg/m3]
283.15 K	950.189
288.15 K	945.589
293.15 K	940.983
298.15 K	936.38
303.15 K	931.762
308.15 K	927.145
313.15 K	922.523
318.15 K	917.893

— the NIST ThermoML archive (doi:10.1021/acs.jced.6b00354)
